Test results reported in PubChem BioAssay (NCI).
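Method: 48-hour compound exposure of cells in 96-well plates, five concentrations, linear interpolation of endpoints. TGI denotes the concentration required for complete inhibition of growth.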 Where a SMILES comes first, the peptide text is derived from it. [ ]: non-standard residue; d: D form. ΔPro = O=C(O)[CH]1C=CCN1

Experiments:
Assay in all cases: NCI anticancer screen, dose series, 48 h
[1] = test system: MCF7 breast
[2] = test system: IGROV1 ovarian
[3] = test system: SNB-78 CNS
[4] = test system: CAKI-1 renal
[5] = test system: OVCAR-4 ovarian
[6] = test system: HOP-18 NSCLC
[7] = test system: MALME-3M melanoma
[8] = test system: SNB-19 CNS
[9] = test system: CCRF-CEM leukemia
[10] = test system: A498 renal
[11] = test system: DLD-1 colon
[12] = test system: M14 melanoma
[13] = test system: HS 578T breast
[14] = test system: T-47D breast

Compound	TGI [1] [µM]	TGI [2] [µM]	TGI [3] [µM]	TGI [4] [µM]	TGI [5] [µM]	TGI [6] [µM]	TGI [7] [µM]	TGI [8] [µM]	TGI [9] [µM]	TGI [10] [µM]	TGI [11] [µM]	TGI [12] [µM]	TGI [13] [µM]	TGI [14] [µM]
Cc1cc(O)c2c(c1)C(=O)c1c(c(O)cc(O)c1-c1c(O)cc(O)c3c1C(=O)c1cc(C)cc(O)c1C3=O)C2=O	48.8	52.6	105	51.4	26.9	39.9	65.2	12.4	48.3	40.4	59.5			
Nc1nc(SCC(=O)c2ccccc2)c2[nH]cnc2n1		> 100		> 100	> 100	> 100	> 100	> 100	> 100	> 100	> 100	> 100		
Cc1ccc(Nc2cccc3c2C(=O)c2cccc(Nc4ccc(C)cc4S(=O)(=O)O)c2C3=O)c(S(=O)(=O)O)c1		> 100	> 100	> 100	> 100	> 100	> 100	> 100	> 100	> 100	> 100	> 100		
Cc1cc(=O)oc2c1cc1ccc3cccc4ccc2c1c34		> 100	> 100	> 100		> 100	> 100	> 100	> 100	> 100	> 100	> 100		
O[C@@]1(C#Cc2ccc3c(c2)OCO3)CCC[C@H]1NCc1ccccc1	55.3	46.9		> 100	> 100		29.6	68.4	99.7	92.5		29.2	50.8	41.2
CSC1=NN(C(C)=O)C(C(OC(C)=O)C(OC(C)=O)C(OC(C)=O)C(COC(C)=O)OC(C)=O)S1 (stereo unspecified)	> 100	> 100		> 100	> 100		> 100	> 100	> 100	> 100		> 100	> 100	> 100
Cn1nnc2c(C(N)=S)ncn2c1=O	> 100	> 100		> 100	> 100		> 100	> 100	> 100	> 100		> 100	> 100	> 100
O=C(O)C1C=CCN1C(=O)C1C=CCN1C(=O)C1C=CCN1 (stereo unspecified) (H-[ΔPro]-[ΔPro]-[ΔPro]-OH; configuration not given here)	> 100	> 100		> 100	> 100		> 100	> 100	> 100	> 100		> 100	> 100	> 100
COc1ccc(-c2sc(Br)c3c2C(=O)C2OC(=O)NC32)cc1OC (stereo unspecified)	> 100	> 100		> 100	> 100		> 100	> 100	> 100	> 100		> 100	> 100	> 100
CC1(C)Cc2c(sc3[nH]c(=S)[nH]c(=S)c23)CS1	> 100	> 100		> 100	65.8		75.6	> 100	> 100	> 100		> 100	> 100	61.4
C/C=C/c1cc2c(cc1O)CC[C@@H]1[C@@H]2CC[C@]2(C)[C@@H](O)CC[C@@H]12	1.28	19		21.1	27.2		23.1	14.9	8.44	6.11		4.05	22.3	41.7
CCN(CC)CCNc1ccc2ncn3c4ccc(OC)cc4c(=O)c1c23	> 100	28.1	30.9	21	8.89	62	25.1	21.4	19	21.5	20	11.7	30.4	40.5
O=C(NN1C(=O)CS(=O)(=O)C1c1ccc(Cl)c(Cl)c1)c1ccncc1 (stereo unspecified)	> 100	> 100	> 100	> 100	> 100	> 100	> 100	> 100	> 86.1	> 100	> 100			
C=C1N(S(=O)(=O)c2ccc(C)cc2)C(=O)OCC12CCCC2	> 100	> 100		> 100	> 100		> 100	> 100	> 100	> 100		> 100	> 100	> 100
CCOP(=O)(C/C=C/Cn1ncc(=O)[nH]c1=O)OCC	> 100	> 100		> 100	> 100		> 100	> 100	> 100	> 100		> 100	> 100	> 100
O=C1Nc2ccc(Br)cc2/C1=N/S(=O)(=O)O	40	> 100		> 100	44.1		71.4	> 100	35.6	> 100		> 100	> 100	> 100
O=Cc1cn(CCCCCCCCn2cc(C=O)c3ccccc32)c2ccccc12	> 10	> 10		> 10	> 10		> 10	> 10	> 10	3.23		> 10	> 10	> 10
C=C1CC(OC)(C(OC)C(=O)N[C@H]2OCO[C@H]3C2O[C@H](C[C@@H](COC)OC)C(C)(C)C3OC)O[C@H](C)[C@@H]1C (stereo partly specified)	> 47	12.3	4.81	3.6	4.25	23.9		3.22	1.43	2.58	9.33			
c1ccc2sc(SSSc3nc4ccccc4s3)nc2c1	> 100	> 100		> 100	> 100		> 100	> 100	> 100	> 100		> 100	> 100	> 100
CCOC(=O)C1=C(C)N(c2ccc(Cl)cc2)C2(O)C=CC(=O)C3=C(O)c4ccccc4C(=O)C312 (stereo unspecified)	8.72	12.9		9.21	8.33		4.53	33.1	6.69	30		12.4	23.1	15.8
CCN(CC)C(=O)CCn1cc(F)c(=O)[nH]c1=O		> 100	> 100		> 100		> 100	> 100	> 100			> 100		
COc1ccccc1-n1nnc2c(N)nc(N)nc21	> 100	> 100		> 100	> 100		> 100	> 100	> 100	> 100		> 100	> 100	> 100
C=C(COCO)C(C)=O	34.5	35.9		5.42	37.2		23.5	> 100	9.64	49		26.8	62.7	36.7
CNC(=O)C(C)Oc1ccc(OCC2CCCCC2)cc1 (stereo unspecified)		> 100	> 100		> 100	> 100	> 100	> 100	> 100	> 100	> 100	> 100		
ICC1CCCO1 (stereo unspecified)		> 100	> 100	> 100	> 100	> 100	> 100	> 100	> 100	> 100	> 100	> 100		
CCO/C(O)=C(/C(=N)N1CCOCC1)C(=O)NC(C)C	> 100	> 100		> 100	> 100		> 100	> 100	> 100	> 100		> 100	> 100	> 100
